According to patent US11452727B2, “Combination therapy for treating cancer” (Epizyme, Inc., priority 2017, dated 2022):

Legend:
Assay in all cases: In vitro combination study with tazemetostat, cell proliferation (Cell Titer Glo)
HCC827 = conditions: 7 days tazemetostat pre-treatment, 6 days co-treatment with second agent
Experimental: (§1) Initial proliferation studies were performed to determine the IC50 of tazemetostat in each cell line. For the screen, tazemetostat was used at concentrations bracketed around the IC50 value. If 50% inhibitory concentration was not reached then tazemetostat was tested starting at 10 μM.
(§2) In order to study the effect of dual combination of tazemetostat and a second agent on cell proliferation, cells in log-linear phase growth rate were pre-treated with various concentrations of tazemetostat or DMSO for 7 days in flasks, plated in 384-well plates in the absence of compounds and co-treated on day 8 with tazemetostat or DMSO and the second agent serially diluted for additional 6 days (as depicted in FIG. 1). On day 15, plates were developed for endpoint analysis using Cell Titer Glo to measure ATP content, which was used as an indicator of cell viability. DMSO concentration was kept constant throughout the assay at 0.15% v/v.
(§3) NCI-H1573 was cultured in DMEM: F12 Medium containing the following components: 0.02 mg/ml insulin, 0.01 mg/ml transferrin, 25 nM sodium selenite, 50 nM Hydrocortisone, 1 ng/ml Epidermal Growth Factor, 0.01 mM ethanolamine, 0.01 mM phosphorylethanolamine, 100 pM triiodothyronine, 0.5% (w/v) bovine serum albumin, 0.5 mM sodium pyruvate, 4.5 mM L-glutamine and 1% v/v Pen/Strep.

NCI-H2030 = conditions: 7 days tazemetostat pre-treatment, 6 days co-treatment with second agent
Experimental: as §1, §2

NCI-H522 = conditions: 7 days tazemetostat pre-treatment, 6 days co-treatment with second agent
Calu-3 = conditions: 7 days tazemetostat pre-treatment, 6 days co-treatment with second agent
Experimental: as §1, §2, §3

NCI-H23 = conditions: 7 days tazemetostat pre-treatment, 6 days co-treatment with second agent
NCI-H2110 = conditions: 7 days tazemetostat pre-treatment, 6 days co-treatment with second agent
Experimental: as §1, §2

NCI-H1703 = conditions: 7 days tazemetostat pre-treatment, 6 days co-treatment with second agent
A549 = conditions: 7 days tazemetostat pre-treatment, 6 days co-treatment with second agent
Experimental: as §1, §2

NCI-H838 = conditions: 7 days tazemetostat pre-treatment, 6 days co-treatment with second agent
Experimental: as §1, §2, §3

NCI-H2122 = conditions: 7 days tazemetostat pre-treatment, 6 days co-treatment with second agent
Experimental: as §1, §2
(§4) All cell lines were obtained from American Type Culture Collection (ATCC; Rockville, Md.). […] A427, Calu-3, Calu-6 cell lines were cultured in EMEM+10% Fetal bovine serum (FBS)+1% v/v Penicillin/Streptomycin (P/S).

NCI-H460 = conditions: 7 days tazemetostat pre-treatment, 6 days co-treatment with second agent
Experimental: as §1, §2, §4

NCI-H1793 = conditions: 7 days tazemetostat pre-treatment, 6 days co-treatment with second agent
Experimental: as §1, §2, §3

NCI-H661 = conditions: 7 days tazemetostat pre-treatment, 6 days co-treatment with second agent
A427 = conditions: A427; 7 days tazemetostat pre-treatment, 6 days co-treatment with second agent
Experimental: as §1, §2, §4

NCI-H1573 = conditions: 7 days tazemetostat pre-treatment, 6 days co-treatment with second agent
NCI-H1993 = conditions: 7 days tazemetostat pre-treatment, 6 days co-treatment with second agent
Experimental: as §1, §2

NCI-H1299 = conditions: 7 days tazemetostat pre-treatment, 6 days co-treatment with second agent
Calu-6 = conditions: 7 days tazemetostat pre-treatment, 6 days co-treatment with second agent

SMILES | combinatorial effect with tazemetostat (Loewe volume class) (HCC827) | combinatorial effect with tazemetostat (Loewe volume class) (NCI-H2030) | combinatorial effect with tazemetostat (Loewe volume class) (NCI-H522) | combinatorial effect with tazemetostat (Loewe volume class) (Calu-3) | combinatorial effect with tazemetostat (Loewe volume class) (NCI-H23) | combinatorial effect with tazemetostat (Loewe volume class) (NCI-H2110) | combinatorial effect with tazemetostat (Loewe volume class) (NCI-H1703) | combinatorial effect with tazemetostat (Loewe volume class) (A549) | combinatorial effect with tazemetostat (Loewe volume class) (NCI-H838) | combinatorial effect with tazemetostat (Loewe volume class) (NCI-H2122) | combinatorial effect with tazemetostat (Loewe volume class) (NCI-H460) | combinatorial effect with tazemetostat (Loewe volume class) (NCI-H1793) | combinatorial effect with tazemetostat (Loewe volume class) (NCI-H661) | combinatorial effect with tazemetostat (Loewe volume class) (A427) | combinatorial effect with tazemetostat (Loewe volume class) (NCI-H1573) | combinatorial effect with tazemetostat (Loewe volume class) (NCI-H1993) | combinatorial effect with tazemetostat (Loewe volume class) (NCI-H1299) | combinatorial effect with tazemetostat (Loewe volume class) (Calu-6)
C=CC(=O)Nc1cc(Nc2nccc(-c3cn(C)c4ccccc34)n2)c(OC)cc1N(C)CCN(C)C [AZD9291] | Add. (A value between −1 and 1 denoted “additivity”) | Add. (A value between −1 and 1 denoted “additivity”) | Syn. (Loewe volumes greater than 1 denoted “synergy”) | Syn. (Loewe volumes greater than 1 denoted “synergy”) | Add. (A value between −1 and 1 denoted “additivity”) | Syn. (Loewe volumes greater than 1 denoted “synergy”) | Add. (A value between −1 and 1 denoted “additivity”) | Add. (A value between −1 and 1 denoted “additivity”) | Syn. (Loewe volumes greater than 1 denoted “synergy”) | Anta. (volumes <−1 denoted “antagonism”) | Add. (A value between −1 and 1 denoted “additivity”) | Syn. (Loewe volumes greater than 1 denoted “synergy”) | Anta. (volumes <−1 denoted “antagonism”) | Anta. (volumes <−1 denoted “antagonism”) | Add. (A value between −1 and 1 denoted “additivity”) | Add. (A value between −1 and 1 denoted “additivity”) | Add. (A value between −1 and 1 denoted “additivity”) | 
CN(C)C/C=C/C(=O)Nc1cc2c(Nc3ccc(F)c(Cl)c3)ncnc2cc1O[C@H]1CCOC1 [Afatinib, afatinib] |  | Add. (A value between −1 and 1 denoted “additivity”) | Syn. (Loewe volumes greater than 1 denoted “synergy”) | Syn. (Loewe volumes greater than 1 denoted “synergy”) | Add. (A value between −1 and 1 denoted “additivity”) | Syn. (Loewe volumes greater than 1 denoted “synergy”) | Add. (A value between −1 and 1 denoted “additivity”) | Anta. (volumes <−1 denoted “antagonism”) | Syn. (Loewe volumes greater than 1 denoted “synergy”) | Add. (A value between −1 and 1 denoted “additivity”) | Add. (A value between −1 and 1 denoted “additivity”) | Syn. (Loewe volumes greater than 1 denoted “synergy”) | Add. (A value between −1 and 1 denoted “additivity”) | Syn. (Loewe volumes greater than 1 denoted “synergy”) | Add. (A value between −1 and 1 denoted “additivity”) | Add. (A value between −1 and 1 denoted “additivity”) | Add. (A value between −1 and 1 denoted “additivity”) | Add. (A value between −1 and 1 denoted “additivity”)
CNC(=O)Cn1cc(-c2ccc3c(c2)[C@H](F)C[C@]32NC(=O)N(CC(=O)N(Cc3ccc(F)cc3)[C@@H](C)C(F)(F)F)C2=O)cn1 [Cmpd H] | Add. (A value between −1 and 1 denoted “additivity”) |  |  | Syn. (Loewe volumes greater than 1 denoted “synergy”) | Anta. (volumes <−1 denoted “antagonism”) | Add. (A value between −1 and 1 denoted “additivity”) |  |  | Add. (A value between −1 and 1 denoted “additivity”) | Add. (A value between −1 and 1 denoted “additivity”) | Syn. (Loewe volumes greater than 1 denoted “synergy”) | Syn. (Loewe volumes greater than 1 denoted “synergy”) | Anta. (volumes <−1 denoted “antagonism”) | Syn. (Loewe volumes greater than 1 denoted “synergy”) | Anta. (volumes <−1 denoted “antagonism”) | Syn. (Loewe volumes greater than 1 denoted “synergy”) |  | Add. (A value between −1 and 1 denoted “additivity”)
C#Cc1cccc(Nc2ncnc3cc(OCCOC)c(OCCOC)cc23)c1 [Erlotinib, erlotinib] | Syn. (Loewe volumes greater than 1 denoted “synergy”) |  |  |  |  |  |  |  |  |  |  |  |  |  |  |  |  | 
C[C@]12C=CC(=O)C=C1CC[C@@H]1[C@@H]2[C@@H](O)C[C@@]2(C)[C@H]1CC[C@]2(O)C(=O)CO [Prednisolone, prednisolone] | Anta. (volumes <−1 denoted “antagonism”) | No eff. | No eff. | No eff. | No eff. | No eff. | No eff. | Add. (A value between −1 and 1 denoted “additivity”) | No eff. | Anta. (volumes <−1 denoted “antagonism”) | Add. (A value between −1 and 1 denoted “additivity”) | Syn. (Loewe volumes greater than 1 denoted “synergy”) | No eff. | Add. (A value between −1 and 1 denoted “additivity”) | Syn. (Loewe volumes greater than 1 denoted “synergy”) | No eff. |  | Syn. (Loewe volumes greater than 1 denoted “synergy”)
C[C@]1(c2nc3c(C(N)=O)cccc3[nH]2)CCCN1 [Veliparib, veliparib] | Syn. (Loewe volumes greater than 1 denoted “synergy”) | No eff. | No eff. | No eff. | No eff. | No eff. | No eff. | No eff. | No eff. | Anta. (volumes <−1 denoted “antagonism”) | Add. (A value between −1 and 1 denoted “additivity”) | No eff. | No eff. | Syn. (Loewe volumes greater than 1 denoted “synergy”) | Syn. (Loewe volumes greater than 1 denoted “synergy”) | No eff. |  | No eff.
CCCS(=O)(=O)Nc1ccc(F)c(C(=O)c2c[nH]c3ncc(-c4ccc(Cl)cc4)cc23)c1F [Vemurafenib, vemurafenib] | No eff. |  |  |  |  |  |  |  |  |  |  |  |  |  |  |  |  | 
